Series [1] can be described thus: Spontaneous decomposition kinetics by UV spectrophotometry in PBS. It is filed as physicochemical. Here is the method: (§1) The rate constants of decomposition were measured spectrophotometrically by monitoring the decrease in absorbance of peaks at ˜240-250 nm characteristic of the diazeniumdiolate functionality. The hydrolysis medium consisted of the metal chelator diethylenetriaminepentaacetic acid (DTPA, 50 μM) in calcium- and magnesium-free Dulbecco's phosphate-buffered saline (PBS, pH 7.4). UV-visible spectroscopy was performed with a Hewlett-Packard 8453 diode-array spectrophotometer equipped with Agilent 89090A thermostat set to 37° C. The spectrophotometer was blanked after warming the cuvette containing buffer at the appropriate pH in the instrument heat block for 5 min. For esterase-containing reactions, porcine liver esterase (20 μL; Sigma; suspension in 3.2 M (NH4)2SO4, pH 8) was added to the reaction buffer before blanking. Upon addition of IPA/NO (1) or AcOM-IPA/NO (2) (≦10 μL of stock), the cuvette was capped and inverted to mix. Spectra were collected at 0.5- to 60-s intervals for time periods of 2-120 min or until A∞<0.05. Kinetic analysis was performed by fitting the data to an exponential decay (A=ΔAe^−kt+A∞) using KaleidaGraph v.3.1.
To gain insight into the mechanistic origins of this unexpected finding, the pH/rate profiles of the diazeniumdiolates 1 and 2 were explored. As previously established and shown in FIG. 3A, hydrolysis of 1 slowed as the pH was increased from 3 to 10, with a small increase in rate thereafter. This was the opposite of the results with 2, whose hydrolysis rate was essentially first order in hydroxide ion concentration between pH 5 and 11 (FIG. 3B).

Another series concerns porcine liver esterase. Kind of series: Esterase-catalyzed hydrolysis followed by UV spectrophotometry. It is filed as in vitro ADME. The following applies: pH 7.4. On the procedure: FIGS. 4A-C are graphs illustrating spontaneous hydrolysis (FIGS. 4A and 4B) and esterase-catalyzed hydrolysis (FIG. 4C) of 2 in an embodiment of the invention. In FIG. 4A, spectra were collected every 60 s (10-min intervals shown) after dissolving 2 in PBS (pH 7.4) at 37° C., and only loss of the parent compound was observed. In FIG. 4B, the pH was elevated to 12, and scans were collected every 0.5 s (through 2.5 s and 3.5, 5.5, 9.5, and 54.5 shown). In FIG. 4C, porcine liver esterase (20 μL in 3 mL) was added (pH 7.4), and spectra were collected every 10 s. Hydrolysis of 2 (λmax 236 nm) to 1 (λmax 250 nm) was complete within 40 s (0.067 s^−1) under these conditions. […] Elevation of the intensity near 200 nm indicated formation of autoxidation products such as nitrite. Deaeration inhibited this peak (data not shown).
as §1

Series [2] is described as follows: NO quantified by chemiluminescence during hydrolysis. It is filed as physicochemical. The conditions noted are these: neutral pH. Here is the method:
In addition to HNO measurements as described above by reductive nitrosylation of metmyoglobin, NO was quantified by chemiluminescence assay, N2O by gas chromatography, and nitrite ion by the Griess assay.
Detection of HNO was also carried out using the chemiluminescence method in, 1 mM ferricyanide solution.

Series [3] is described as follows: Hydrolysis at pH 11 followed by NMR. It is filed as physicochemical. Here is the method:
Organic products of the hydrolysis of 1 and 2 were quantified by integrating their NMR spectra. For pH 7.4, 3.9 mM solutions in 0.1 M phosphate buffer were employed. For pH 11, 4.9 mM solutions of 1 and 2 in 50 mM sodium carbonate were studied. Samples were run on a Varian Inova 400 MHz NMR with a Dell Precision 390 workstation. The samples were run at 37° C. and water suppression was achieved by using the preset pulse sequence. Peaks were identified by comparison with authentic standards.

Another series concerns COX-2 mRNA. Kind of series: COX mRNA levels. The conditions noted are these: Control 1.0. It is filed as cell-based. An excerpt: PGE2 levels are a direct measure of COX-2 activity. […] Increased COX-2 expression in the presence of aspirin has been reported previously (Davies et al., Alimentary Pharm. & Ther. 11(6):1101-08 (1997))). Both DEA/NO and DEA/NO-aspirin seem to augment the effect of aspirin while IPA/NO and IPA/NO-aspirin nullifies the effect and brings it back to the control level (Table 3).

For the next series, the system named is ventricular myocytes. Kind of series: Sarcomere shortening in isolated ventricular myocytes. It is filed as cell-based, C57BL/6 male mice. The following applies: 3 μM. Here is the method: A stock solution of 2 in DMSO was freshly prepared prior to each experiment and stored on ice protected from the light. Liberase blendzyme 3 was purchased from Roche Diagnostics (Mannheim) while CaCl2, DMSO, and glucose were purchased from Merck (Darmstadt). Calcium-free perfusion buffer contained 113 mM NaCl, 4.7 mM KCl, 0.6 mM KH2PO4, 0.6 mM Na2HPO4, 1.2 mM MgSO4, 12 mM NaHCO3, 10 mM KHCO3, 30 mM taurine, 5.5 mM glucose, 10 mM 2,3-butanedione monoxime, and 10 mM 4-(2-hydroxyethyl)-1-piperazineethanesulfonic acid (HEPES) at pH 7.4. Digestion buffer contained an additional 0.1 mg/mL of recombinant collagenases/proteases (Liberase blendzyme 3) and 12.5 μM CaCl2. IonOptix solution for the sarcomere shortening measurements contained 135 mM NaCl, 4.7 mM KCl, 0.6 mM KH2PO4, 0.6 mM Na2HPO4, 1.2 mM MgSO4, 1.25 mM CaCl2, 20 mM glucose, and 10 mM HEPES at pH 7.46.
C57BL/6 male mice (13-15 weeks) were used in the present study. Ventricular myocytes were isolated from wild type hearts using a modified protocol of O'Connell et al., (AfCS Research Reports, 1(5): 1-9 (2003)). […] After further centrifugation, ionOptix buffer was added on the pellet and sarcomere shortening was assessed on field stimulation (1 Hz with 4-ms duration, 10 V) using a video-based sarcomere length detection system (IonOptix Corporation) at room temperature.

In series [4] the test system is MB-231 breast cancer cell lines.
Method: (§2) Intracellular NO/HNO release from the derivatized NSAIDs was determined using 4-amino-5-methylamino-2′,7′-difluorofluoroescein diacetate (DAF-FM diacetate) as in Example 9.
Series [5] has the same test system. Kind of series: DAF assay of cell membrane penetration, MB-231. The conditions noted are these: MB-231 cell line.
Method: as §2
Setting [6] is: porcine liver esterase 20 μL in 3 mL.

Read-outs that look alike come from different tables or passages of the source.

Consider `CC(C)N[N+]([O-])=N[O-].[Na+]` [Compound 1, sodium 1-(N-isopropylamino)diazen-1-ium-1,2-diolate, reference compound], for which the “rate of decay of 1” value in series [1] (FIG. 3A, PBS with 50 μM DTPA, 37° C.) was 0.0012 s⁻¹; in the series on porcine liver esterase (FIG. 4C, esterase present) it was 0.0033 s⁻¹. In series [1] (pH 11, more slowly than 2), the “hydrolysis rate relative to 2” value was determined as 100 fold. Besides, the “species produced on spontaneous hydrolysis” value in series [2] was “produced both NO and HNO”. Moreover, in series [3] (pH 11), the “hydrolysis at pH 11” value is “hydrolyzed slowly”. Also, in the series on COX-2 mRNA, the “COX-2 mRNA level relative to control” value is 1.2.
Turning to `CC(=O)OCO/N=[N+](\[O-])NC(C)C` [Compound 2, O^2-(acetoxymethyl)1-(isopropylamino)diazen-1-ium-1,2-diolate], the “hydrolysis rate relative to 1” value in series [1] (physiological pH) is “an order of magnitude slower”. Further, in the series with porcine liver esterase (setting [6]), the “rate of hydrolysis of 2 to 1” value is 0.067 s⁻¹ and the “time to complete hydrolysis of 2 to 1” value is given as at most 40 s. Moreover, in series [2] (NO-specific chemiluminescence detector), the “total amount of NO detected on hydrolysis” value is given as “less than 1 % of theoretical yield”. Moreover, the “time to complete dissociation” value in series [3] (37° C., pH 11 carbonate buffer) is reported as at most 5 min. In addition, the “change in sarcomere shortening relative to baseline, versus 1” value in the series on ventricular myocytes is “approximately 4 fold”.
As for `CCN(CC)[N+]([O-])=N[O-].[Na+]` [DEA/NO, O^2-Sodium 1-(N,N-Diethylamino)diazen-1-ium-1,2-diolate, reference compound], the “COX-2 mRNA level relative to control” value in the series with COX-2 mRNA is given as 6.0.
Regarding `CCN(CC)[N+]([O-])=NOCOC(=O)Cc1c(C)n(C(=O)c2ccc(Cl)cc2)c2ccc(OC)cc12` [DEA/NO-indomethacin, O^2-(methyl2-(1-(4-chlorobenzoyl)-5-methoxy-2-methyl-1H-indol-3-yl)acetate)-1-(N,N-Diethylamino)-diazen-1-ium-1,2-diolate], in series [4], the cell membrane penetration entry was “penetrated cell membranes”.
Still for that read-out and setting: to `COc1ccc2c(c1)c(CC(=O)OCON=[N+]([O-])NC(C)C)c(C)n2C(=O)c1ccc(Cl)cc1` [IPA/NO-indomethacin, O^2-(methyl2-(1-(4-chlorobenzoyl)-5-methoxy-2-methyl-1H-indol-3-yl)acetate)-1-(N-isopropylamino)-diazen-1-ium-1,2-diolate] belongs “penetrated cell membranes”.
Turning to `CC(C)N[N+]([O-])=NOC(=O)c1cccnc1Nc1cccc(C(F)(F)F)c1` [IPA/NO-niflumic acid, O^2-(2-(3-(trifluoromethyl)phenylamino)nicotinate)-1-(N-isopropylamino)-diazen-1-ium-1,2-diolate], the cell membrane penetration result in series [5] was “penetrated cell membranes”.

(Values after patent US8633177B2, “Nitroxyl (HNO) releasing compounds and uses thereof in treating diseases” (The United States of America, as represented by the …, priority 2010, dated 2014).)
